pIC50: −log10 of the molar value.
Molecular target: T1, Type-1 angiotensin II receptor (Oryctolagus cuniculus, UniProt P34976)
T1 sequence (P34976 whole entry): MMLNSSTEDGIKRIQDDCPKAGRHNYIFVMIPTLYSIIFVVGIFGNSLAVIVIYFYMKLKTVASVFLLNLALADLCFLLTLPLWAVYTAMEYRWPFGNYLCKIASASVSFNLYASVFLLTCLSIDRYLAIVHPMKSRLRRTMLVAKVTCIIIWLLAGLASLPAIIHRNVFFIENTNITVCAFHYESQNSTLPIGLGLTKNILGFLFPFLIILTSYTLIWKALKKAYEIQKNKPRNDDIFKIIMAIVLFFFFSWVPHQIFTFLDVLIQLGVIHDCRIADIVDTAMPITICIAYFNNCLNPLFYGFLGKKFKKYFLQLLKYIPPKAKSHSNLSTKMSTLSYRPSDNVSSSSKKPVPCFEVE
Test: Antagonist activity at AT1 receptor in Oryctolagus cuniculus (rabbit) aorta

| pIC50 | Structure (SMILES) |
| --- | --- |
| 7.96 | CCCCc1nnc([S+]([O-])Cc2ccc(Cl)cc2)n1Cc1ccc(NC(=O)c2ccccc2-c2nn[nH]n2)cc1 (stereo unspecified) |
| 7.30 | CCCCc1nnc([S+]([O-])Cc2ccc(OC)cc2)n1Cc1ccc(NC(=O)c2ccccc2-c2nn[nH]n2)cc1 (stereo unspecified) |
| 7.24 | CCCCc1nnc(C(=O)NCc2ccccc2)n1Cc1ccc(NC(=O)c2ccccc2-c2nnn[nH]2)cc1 |
| 7.05 | CCCCc1nnc(C(=O)N(C)Cc2ccccc2)n1Cc1ccc(NC(=O)c2ccccc2-c2nnn[nH]2)cc1 |
| 6.46 | CCCCc1nnc(C(=O)N(C)c2ccccc2)n1Cc1ccc(NC(=O)c2ccccc2-c2nnn[nH]2)cc1 |
| 6.05 | CCCCc1nnc(SC(C)(C)C)n1Cc1ccc(NC(=O)c2ccccc2C(=O)O)cc1 |
| 6.51 | CCCCc1nnc(SC)n1Cc1ccc(NC(=O)c2ccccc2-c2nnn[nH]2)cc1 |
| 7.14 | CCCCc1nnc(SCC(C)C)n1Cc1ccc(NC(=O)c2ccccc2-c2nnn[nH]2)cc1 |
| 7.44 | CCCCc1nnc(SCC2CCCCC2)n1Cc1ccc(NC(=O)c2ccccc2-c2nnn[nH]2)cc1 |
| 7.00 | CCCCc1nnc(Sc2ccccc2)n1Cc1ccc(NC(=O)c2ccccc2-c2nnn[nH]2)cc1 |
| 8.15 | CCCCc1nnc(SCc2ccccc2)n1Cc1ccc(NC(=O)c2ccccc2-c2nnn[nH]2)cc1 |
| 7.46 | CCCCc1nnc(SCCc2ccccc2)n1Cc1ccc(NC(=O)c2ccccc2-c2nnn[nH]2)cc1 |
| 7.77 | CCCCc1nnc(SCc2ccccc2C)n1Cc1ccc(NC(=O)c2ccccc2-c2nnn[nH]2)cc1 |
| 6.96 | CCCCc1nnc(SCc2ccccc2Cl)n1Cc1ccc(NC(=O)c2ccccc2-c2nnn[nH]2)cc1 |
| 7.01 | CCCc1nnc(SCc2ccc(Cl)cc2)n1Cc1ccc(NC(=O)c2ccccc2-c2nnn[nH]2)cc1 |
| 7.03 | CCCCCc1nnc(SCc2ccc(Cl)cc2)n1Cc1ccc(NC(=O)c2ccccc2-c2nnn[nH]2)cc1 |
| 6.89 | CCCCc1nnc(SCc2ccccc2[N+](=O)[O-])n1Cc1ccc(NC(=O)c2ccccc2-c2nnn[nH]2)cc1 |
| 8.18 | CCCCc1nnc(SCc2ccc([N+](=O)[O-])cc2)n1Cc1ccc(NC(=O)c2ccccc2-c2nnn[nH]2)cc1 |

| pIC50 | Structure (SMILES) |
| --- | --- |
| 7.03 | CCCCc1nnc(SCc2cccc(OC)c2)n1Cc1ccc(NC(=O)c2ccccc2-c2nnn[nH]2)cc1 |
| 6.92 | CCCCc1nnc(SCc2ccc(C(=O)OC)cc2)n1Cc1ccc(NC(=O)c2ccccc2-c2nnn[nH]2)cc1 |
| 7.62 | CCCCc1nnc(SCc2ccc(C(=O)O)cc2)n1Cc1ccc(NC(=O)c2ccccc2-c2nnn[nH]2)cc1 |
| 7.05 | CCCCc1nnc(SCc2ccccc2C(=O)OC)n1Cc1ccc(NC(=O)c2ccccc2-c2nnn[nH]2)cc1 |
| 8.82 | CCCCc1nnc(SCc2ccccc2C(=O)O)n1Cc1ccc(NC(=O)c2ccccc2-c2nnn[nH]2)cc1 |
| 7.44 | CCCCc1nnc(SCc2ccccc2CO)n1Cc1ccc(NC(=O)c2ccccc2-c2nnn[nH]2)cc1 |
| 8.85 | CCCCc1nnc(SCc2ccccc2-c2nnn[nH]2)n1Cc1ccc(NC(=O)c2ccccc2-c2nnn[nH]2)cc1 |
| 6.40 | CCCCc1nnc(S(C)(=O)=O)n1Cc1ccc(NC(=O)c2ccccc2-c2nnn[nH]2)cc1 |
| 7.32 | CCCCc1nnc(S(=O)(=O)Cc2ccc(Cl)cc2)n1Cc1ccc(NC(=O)c2ccccc2-c2nnn[nH]2)cc1 |
| 8.05 | CCCCc1nnc([S+]([O-])Cc2ccc([N+](=O)[O-])cc2)n1Cc1ccc(NC(=O)c2ccccc2-c2nnn[nH]2)cc1 (stereo unspecified) |
| 8.00 | CCCCc1nnc([S+]([O-])Cc2ccccc2C(=O)O)n1Cc1ccc(NC(=O)c2ccccc2-c2nnn[nH]2)cc1 (stereo unspecified) |
| 6.43 | CCCCc1nnc(OCc2ccccc2)n1Cc1ccc(NC(=O)c2ccccc2-c2nnn[nH]2)cc1 |
| 7.20 | CCCCc1nnc(OCCc2ccccc2)n1Cc1ccc(NC(=O)c2ccccc2-c2nnn[nH]2)cc1 |
| 7.55 | CCCCc1nnc(NCc2ccccc2)n1Cc1ccc(NC(=O)c2ccccc2-c2nnn[nH]2)cc1 |
| 6.85 | CCCCc1nnc(NCc2ccc(Cl)cc2)n1Cc1ccc(NC(=O)c2ccccc2-c2nnn[nH]2)cc1 |
| 6.11 | CCCCc1nnc(NCc2ccc(OC)cc2)n1Cc1ccc(NC(=O)c2ccccc2-c2nnn[nH]2)cc1 |
| 6.07 | CCCCc1nnc(S)n1Cc1ccc(NC(=O)c2ccccc2C(=O)O)cc1 |
| 6.49 | CCCSc1nnc(Cc2ccccc2)n1Cc1ccc(NC(=O)c2ccccc2C(=O)O)cc1 |
